System: lean C57BL/6NTac mice
Test: Intraperitoneal Insulin Tolerance Test (IP-ITT)
Type: in vivo
Settings: intraperitoneal injection, two doses per compound (Table 16), blood glucose 30 to 360 min after dose
Procedure: Groups of N=6-8 animals per group were randomized by weight (average about 30 grams). Two days prior to study, the mice were conditioned to dosing with an intraperitoneal injection of 0.9% Sodium Chloride solution at 5 ml/kg dosing volume. On the morning of the study, food was removed two or four hours prior to the study. Blood glucose concentrations were determined at T=0 min (baseline) using a Glucometer. […] Blood glucose levels were determined from tail bleeds taken between 30 to 360 minutes after dose.

## B29,B29′-suberoyl-(insulin)2 [Compound B, reference compound]
  glucose profile at low versus high dose in IP-ITT: increasing the dosage of compounds A and B caused an increased glucose lowering potency
